pEC50: −log10 of the molar value.
What was measured:
[1] = target: T1, TR-α (Homo sapiens, UniProt P10827); assay: In vitro TR-α activity (in-house protocol); format: cell-based; details: for fold induction at 0.001 µM: Conc. 1 nM; for fold induction at 0.001 µM / fold induction at 0.01 µM / fold induction at 0.1 µM / fold induction at 1 µM: read-out: TR-α Fold Induction w.r.t T3(100 nm); for fold induction at 0.01 µM: Conc. 10 nM; for fold induction at 0.1 µM: Conc. 100 nM; for fold induction at 1 µM: Conc. 1000 nM
T1 sequence (P10827 1-410 isoform P10827-2): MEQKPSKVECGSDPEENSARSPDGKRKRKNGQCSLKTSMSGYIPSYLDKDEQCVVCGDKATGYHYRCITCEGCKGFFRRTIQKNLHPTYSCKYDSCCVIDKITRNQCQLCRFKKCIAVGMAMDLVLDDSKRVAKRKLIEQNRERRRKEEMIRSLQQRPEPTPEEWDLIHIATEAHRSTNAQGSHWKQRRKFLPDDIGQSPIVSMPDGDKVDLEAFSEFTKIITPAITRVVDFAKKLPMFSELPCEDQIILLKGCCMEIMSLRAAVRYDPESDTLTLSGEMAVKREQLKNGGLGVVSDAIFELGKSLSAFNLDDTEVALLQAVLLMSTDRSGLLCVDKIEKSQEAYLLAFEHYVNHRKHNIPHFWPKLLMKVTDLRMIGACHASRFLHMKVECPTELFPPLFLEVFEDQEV
Procedure: (§1) In vitro TR-α & TR-β activities were determined as per in-house protocols and the results of representative compounds are provided in tables 1 & 2 below as a proof of the efficacies of the novel class of compounds disclosed above.

[2] = target: T2, TR-β (Homo sapiens, UniProt P10828); assay: In vitro TR-β activity (in-house protocol); format: cell-based; details: for fold induction at 0.001 µM: Conc. 1 nM; for fold induction at 0.001 µM / fold induction at 0.01 µM / fold induction at 0.1 µM / fold induction at 1 µM: read-out: TR-β Fold Induction w.r.t T3(100 nm); for fold induction at 0.01 µM: Conc. 10 nM; for fold induction at 0.1 µM: Conc. 100 nM; for fold induction at 1 µM: Conc. 1000 nM
T2 sequence (P10828 1-461): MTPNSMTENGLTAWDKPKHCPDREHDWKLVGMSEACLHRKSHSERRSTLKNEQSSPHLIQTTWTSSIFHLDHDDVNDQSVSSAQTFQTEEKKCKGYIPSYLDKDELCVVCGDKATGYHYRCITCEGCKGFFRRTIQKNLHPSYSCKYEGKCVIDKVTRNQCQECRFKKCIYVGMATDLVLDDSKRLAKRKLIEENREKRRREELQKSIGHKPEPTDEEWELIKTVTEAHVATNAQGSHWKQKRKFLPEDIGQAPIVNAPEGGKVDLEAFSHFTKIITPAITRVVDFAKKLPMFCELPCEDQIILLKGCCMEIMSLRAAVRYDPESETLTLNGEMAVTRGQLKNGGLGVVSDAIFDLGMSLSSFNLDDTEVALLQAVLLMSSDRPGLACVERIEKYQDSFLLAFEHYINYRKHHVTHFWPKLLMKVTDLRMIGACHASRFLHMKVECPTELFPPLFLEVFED
Procedure: as §1

fold induction at 0.001 µM [1] | fold induction at 0.01 µM [1] | fold induction at 0.1 µM [1] | fold induction at 1 µM [1] | fold induction at 0.001 µM [2] | fold induction at 0.01 µM [2] | fold induction at 0.1 µM [2] | fold induction at 1 µM [2] | pEC50 [1] | pEC50 [2] | Structure (SMILES)
17.6 | 21.2 | 29.9 | 64.2 | 10.6 | 12.1 | 33.5 | 68.5 | – | – | O=C(O)CON=Cc1cc(Br)c(Oc2ccc(O)c(C(O)c3ccc(Cl)cc3)c2)c(Br)c1 (centres unmarked) [Example 29, 2-(((3,5-dibromo-4-(3-((4-chlorophenyl)(hydroxy)methyl)-4-hydroxyphenoxy)benzylidene)amino)oxy)acetic acid]
10.6 | 11.8 | 13.5 | 29.5 | 11.5 | 11.2 | 15.8 | 40.4 | – | – | CC(ON=Cc1cc(Br)c(Oc2ccc(O)c(S(=O)(=O)NC3CCCCC3)c2)c(Br)c1)C(=O)O (centres unmarked) [Example 39, 2-(((3,5-dibromo-4-(3-(N-cyclohexylsulfamoyl)-4-hydroxyphenoxy)benzylidene)amino)oxy)propanoic acid]
– | – | – | – | – | – | – | – | 5.68 | 5.31 | O=C(O)CON=Cc1cc(Br)c(Oc2ccc(O)c(C(O)c3cccc(Cl)c3)c2)c(Br)c1 (centres unmarked) [Example 35, 2-(((3,5-dibromo-4-(3-((3-chlorophenyl)(hydroxy)methyl)-4-hydroxyphenoxy)benzylidene)amino)oxy)acetic acid]
12.1 | 27.2 | 48.6 | 85.1 | 9.09 | 24.9 | 44.9 | 73.9 | – | – | CC(C)(ON=Cc1cc(Br)c(Oc2ccc(O)c(Cc3ccccc3)c2)c(Br)c1)C(=O)O [Example 22, 2-(((4-(3-benzyl-4-hydroxyphenoxy)-3,5-dibromobenzylidene)amino)oxy)-2-methylpropanoic acid]
34.4 | 80.8 | 64.2 | 109 | 20.2 | 69.7 | 86.2 | 90.8 | – | – | CCC(ON=Cc1cc(Br)c(Oc2ccc(O)c(C(C)CC)c2)c(Br)c1)C(=O)O (centres unmarked) [Example 19, 2-(((3,5-dibromo-4-(3-(sec-butyl)-4-hydroxyphenoxy)benzylidene)amino)oxy)butanoic acid]
14.1 | 15.4 | 57.8 | 128 | 11 | 19.7 | 58.2 | 107 | – | – | CC(ON=Cc1cc(Br)c(Oc2ccc(O)c(S(=O)(=O)N3CCCCC3)c2)c(Br)c1)C(=O)O (centres unmarked) [Example 36, 2-(((3,5-dibromo-4-(4-hydroxy-3-(piperidin-1-ylsulfonyl)phenoxy)benzylidene)amino)oxy)propanoic acid]
24 | 59.9 | 88.7 | 110 | 39 | 65.4 | 119 | 67.4 | – | – | CC(C)c1cc(Oc2c(Br)cc(C=NOC(C)(C)C(=O)O)cc2Br)ccc1O [Example 12, 2-(((3,5-dibromo-4-(4-hydroxy-3-isopropylphenoxy)benzylidene)amino)oxy)-2-methylpropanoic acid]
18.5 | 52.1 | 102 | 121 | 16.6 | 48.9 | 105 | 86.1 | – | – | CC(ON=Cc1cc(Br)c(Oc2ccc(O)c(C(C)(C)C)c2)c(Br)c1)C(=O)O (centres unmarked) [Example 24, 2-(((3,5-dibromo-4-(3-(tert-butyl)-4-hydroxyphenoxy)benzylidene)amino)oxy)propanoic acid]
10.1 | 16.4 | 25.3 | 76.2 | 11.8 | 13.6 | 25 | 82.2 | – | – | CCN(CC)S(=O)(=O)c1cc(Oc2c(Br)cc(C=NOC(C)C(=O)O)cc2Br)ccc1O (centres unmarked) [Example 38, 2-(((3,5-dibromo-4-(3-(N,N-diethylsulfamoyl)-4-hydroxyphenoxy)benzylidene)amino)oxy)propanoic acid]
20.4 | 16.8 | 22.8 | 69.8 | 11.8 | 12.9 | 14.5 | 65 | – | – | O=C(O)CON=Cc1cc(Br)c(Oc2ccc(O)c(C(O)c3ccc(Br)cc3)c2)c(Br)c1 (centres unmarked) [Example 32, 2-(((3,5-dibromo-4-(3-((4-bromophenyl)(hydroxy)methyl)-4-hydroxyphenoxy)benzylidene)amino)oxy)acetic acid]
19.1 | 29.4 | 119 | 161 | 12 | 31.7 | 54.3 | 70.5 | – | – | CC(ON=Cc1cc(Br)c(Oc2ccc(O)c(Cc3ccccc3)c2)c(Br)c1)C(=O)O (centres unmarked) [Example 16, 2-(((4-(3-benzyl-4-hydroxyphenoxy)-3,5-dibromobenzylidene)amino)oxy)propanoic acid]
13.7 | 17.2 | 38.3 | 39.2 | 11.8 | 14.3 | 41.5 | 50.3 | – | – | O=C(O)CON=Cc1cc(Br)c(Oc2ccc(O)c(C(=O)c3ccc(Br)cc3)c2)c(Br)c1 [Example 31, 2-(((3,5-dibromo-4-(3-(4-bromobenzoyl)-4-hydroxyphenoxy)benzylidene)amino)oxy)acetic acid]
12.1 | 13.9 | 34.9 | 64.5 | 9.62 | 13.2 | 41.2 | 76.2 | – | – | CC(ON=Cc1cc(Br)c(Oc2ccc(O)c(C(=O)c3ccc(Cl)cc3)c2)c(Br)c1)C(=O)O (centres unmarked) [Example 26, 2-(((3,5-dibromo-4-(3-(4-chlorobenzoyl)-4-hydroxyphenoxy)benzylidene)amino)oxy)propanoic acid]
15.5 | 36 | 77 | 90.4 | 13.8 | 20.8 | 69.5 | 122 | – | – | CCC(C)c1cc(Oc2c(Br)cc(C=NOC(C(=O)O)c3ccccc3)cc2Br)ccc1O (centres unmarked) [Example 18, 2-(((3,5-dibromo-4-(3-(sec-butyl)-4-hydroxyphenoxy)benzylidene)amino)oxy)-2-phenylacetic acid]
11 | 9.45 | 14 | 35.5 | 11.4 | 10.5 | 19.3 | 64.4 | – | – | O=C(O)CON=Cc1cc(Cl)c(Oc2ccc(O)c(-c3ccccc3)c2)c(Cl)c1 [Example 4, 2-(((3,5-dichloro-4-((6-hydroxy-[1,1′-biphenyl]-3-yl)oxy)benzylidene)amino)oxy)acetic acid]
13.2 | 14.4 | 45.2 | 76.4 | 10.1 | 16.4 | 29.1 | 107 | – | – | CC(ON=Cc1cc(Br)c(Oc2ccc(O)c(C(O)c3ccc(Cl)cc3)c2)c(Br)c1)C(=O)O (centres unmarked) [Example 27, 2-(((3,5-dibromo-4-(3-((4-chlorophenyl)(hydroxy)methyl)-4-hydroxyphenoxy)benzylidene)amino)oxy)propanoic acid]
